Residues, ends and D or L forms follow the SMILES beside them. No end group written: not given here. *: point of attachment. 5TAMRA = CN(C)c1ccc2c(c1)Oc1cc(N(C)C)ccc1C21OC(=O)c2cc(C(=O)*)ccc21
Legend:
Nluc::NPR-11 [1] = target: T1, Nluc::NPR-11 (Caenorhabditis elegans, UniProt Q18179); assay: biochemical; type: binding, C. elegans
T1 construct: expressed in transfected cells; host or cells: transgenic C. elegans (extrachromosomal array, npr-11 knockout background), incised young adult worms
Description: (§1) All measurements were conducted using synchronized young adult worms (1 day post L4). Individuals were washed twice with HBSS (Hanks’ balanced salt solution with 25 mM HEPES, pH 7.4, 37 °C) and the number of worms/ μl was calculated.
(§2) For luminescence measurements of intact worms, animals (1; 10; 50; 100 or 500) were directly transferred into the wells of a white flat-bottom 384-well plate in 50 μl HBSS buffer. Worms to be cut were pre-washed with M9 + 0.1% Tween to avoid sticking of worms to the dish and subsequently transferred in 2 ml of HBSS. Incisions were made in the middle of the body with a scalpel blade and worms were immediately afterwards transferred with a glass pipette into HBSS buffer on ice. For mechanically cracking, a worm suspension was homogenized in tubes with 150 μl HBSS and six glass beads (Ø = 3 mm) using with a Precellys homogenizer (Bertin instruments, France) for 40 s at 5000 rpm. Samples were placed on ice until further usage.
For BRET binding assays in vivo, the nanoluciferase (Nluc) was applied as energy donor and either peptides labeled with the TAM fluorophore or the mNeonGreen fluorescent protein fused to a receptor served as acceptor.
30 Nluc-expressing worms with incisions in 50 μl BRET buffer were incubated with dissolving buffer or peptide solutions of final concentrations ranging from 0.05–10 μM in a 384-well plate. During a 25 min incubation with gentle shaking, 10 μl Nano-Glo Live Cell Reagent (N2011, Promega, USA) of a 5x stock were added according to manufacturer’s instructions after 15 min to each well. Competition-binding assays were performed similarly, but additionally, unlabeled peptide (final concentrations 0.016–10 μM) was pipetted into each well and 5 μl of a 10x stock Nano-Glo Live cell reagent was applied after 15 min.
Luminescence (L) and fluorescence (F) were detected with a microplate plate reader (Tecan Spark) using the following filter set: donor = 430–470 nm, acceptor = 550–700 nm with 1000 ms integration time. BRET was calculated by dividing F values by L values. For each experiment, the background signal of donor-only cells was subtracted, such that the BRET ratio at 0 μM ligand equals 0.00. In Fig. 3B (left) and Fig. 3D, the mean of n = 4 (NPR-11) or n = 3 (LAT-1) independent, individually background-corrected single experiments is presented.

NPR-11 [2] = target: T2, NPR-11 (Caenorhabditis elegans, UniProt Q18179); assay: cAMP reporter gene assay, transfected HEK293 cells (Fig. S3B); type: cell-based, C. elegans; parameters: expressed in transfected cells; host or cells: HEK293 cells, co-transfected with reporter plasmid pGL4.29 [luc2P/CRE/Hygro]
T2 sequence (Q18179 1-402): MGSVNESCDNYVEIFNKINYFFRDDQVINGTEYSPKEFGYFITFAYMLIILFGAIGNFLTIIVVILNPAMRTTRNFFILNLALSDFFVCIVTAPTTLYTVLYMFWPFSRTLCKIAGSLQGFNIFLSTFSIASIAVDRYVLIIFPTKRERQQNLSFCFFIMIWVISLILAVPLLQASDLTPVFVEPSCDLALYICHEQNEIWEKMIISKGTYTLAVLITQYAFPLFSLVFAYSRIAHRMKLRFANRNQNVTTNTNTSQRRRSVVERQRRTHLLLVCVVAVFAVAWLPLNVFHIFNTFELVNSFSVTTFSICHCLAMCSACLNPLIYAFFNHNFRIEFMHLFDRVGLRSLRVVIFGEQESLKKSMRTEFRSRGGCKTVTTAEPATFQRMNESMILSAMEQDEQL
Description: All in vitro experiments were carried out using either HEK293 cells (Homo sapiens, embryonic kidney, DSMZ (German Collection of Microorganisms and Cell Cultures) ACC 305) or COS-7 cells (African green monkey, cercopithecus aethiops, kidney, DSMZ (German Collection of Microorganisms and Cell Cultures) ACC 60). HEK293 cells were kept in Dulbecco’s Modified Eagle’s Medium (DMEM) with Ham’s F-12 (v/v) and 15% (v/v) heat-inactivated fetal calf serum (FCS), while COS-7 cells were cultured in DMEM with 10% (v/v) FCS and 1% (v/v) Penicillin-Streptomycin. All cells were kept at 37 °C under a humidified atmosphere (5% CO2).
NPR-11 activation was read out in the Gi/o pathway by a cAMP reporter gene assay in transiently transfected HEK293 cells as described previously. Briefly, HEK293 cells were grown to 70% confluency and transiently co-transfected with the receptor plasmid (2 μg) and the reporter gene plasmid pGL4.29 [luc2P/CRE/Hygro] (Promega; 2 μg) with MetafectenePro (Biontex). Cells were then re-seeded into 384-well plates. On the next day, the medium was removed, and the cells were stimulated with peptide solution (20 μl) containing 5 μM forskolin (stimulating intracellular cAMP levels) in DMEM and incubated for 4 h. Luciferase substrate OneGlo in lysis buffer (Promega) was added and incubated for 5 min. Luminescence was measured in a microplate reader (Tecan Spark). […]

NPR-11 [3] = target: T2, NPR-11; settings: read-out: inhibition binding constant Ki; TAM-FLP-34-1 as fluorescent tracer; ref [35]; cited from earlier work
Nluc::NPR-11 [4] = target: T1, Nluc::NPR-11; assay: biochemical; type: binding, C. elegans; remark: listed apart in the source
Description: as §1
as §2, with “usage. […]” for “usage.”
Luminescence (L) and fluorescence (F) were detected with a microplate plate reader (Tecan Spark) using the following filter set: donor = 430–470 nm, acceptor = 550–700 nm with 1000 ms integration time. BRET was calculated by dividing F values by L values. […]

NPR-11::Nluc = assay: Enhanced bystander BRET in vivo, NPR-11::Nluc and CAAX::mNG (Fig. 4C); parameters: species or system C. elegans
Description: Luminescence levels depended on the used strain, reaching (without ligand) approximately 2000 AU in Nluc::npr-11 animals and up to 32,000 AU in Nluc::lat-1 expressing worms. For enhanced bystander BRET analyses, 30 cut worms (APR716 and APR718) in 50 μl HBSS buffer were incubated for 10 min with 10 μl of Nano-Glo Live Cell Reagent (5x stock). Luminescence and fluorescence were measured once prior to peptide stimulation. Afterwards, FLP-34-1 (final concentration 5 μM) or H2O with 0.5% BSA and 2.5% DMSO as control were added to each well and luminescence and fluorescence was measured over the course of 80 min. The acceptor filter for this setting was altered to 505–605 nm, while the donor filter remained at 430–470 nm, as before.

Compound | Kd (Nluc::NPR-11 [1]) | EC50 (NPR-11 [2]) | Ki (NPR-11 [3]) | Ki (Nluc::NPR-11 [4]) | time after which BRET increases again (NPR-11::Nluc; 5 μM FLP-34-1) | change of bystander BRET signal over time (NPR-11::Nluc; 5 μM FLP-34-1 vs untreated controls)
CC[C@H](C)[C@H](NC(=O)[C@H](C)NC(=O)[C@H](CO)NC(=O)[C@H](C)NC(=O)[C@H](Cc1ccccc1)NC(=O)[C@@H](NC(=O)[C@H](CO)NC(=O)[C@@H](NC(=O)[C@H](CC(=O)O)NC(=O)[C@H](C)NC(=O)c1ccc2c(c1)C(=O)OC21c2ccc(N(C)C)cc2Oc2cc(N(C)C)ccc21)[C@@H](C)CC)[C@@H](C)O)C(=O)N[C@@H](CC(N)=O)C(=O)N[C@@H](CC(N)=O)C(=O)N[C@@H](C)C(=O)NCC(=O)N[C@@H](CCCNC(=N)N)C(=O)N[C@@H](CC(C)C)C(=O)N[C@@H](CCCNC(=N)N)C(=O)N[C@@H](Cc1ccc(O)cc1)C(N)=O [TAM-FLP-34-1] (5TAMRA-ADISTFASAINNAGRLRY-NH2) | 1400 nM | 0.5 nM | – | – | – | –
ADISTFASAINNAGRLRY-NH2 [FLP-34-1] | – | 2.3 nM | 107 nM | 1100 nM | > 70 min | decrease of BRET signal

— publication PMC8805316, “NanoBRET in C. elegans illuminates functional receptor interactions in real time” (BMC Molecular and Cell Biology, 2022)
